The source of these data is patent US20250382306A1, “HETEROCYCLIC COMPOUND AS TAAR1 LIGAND AGONIST” (SHANDONG LUYE PHARMACEUTICAL CO., LTD., priority 2022, published 2025).

The AUC(0-t) is the area under the concentration-time curve up to a stated or last time point. A lower AUC(0-t) goes with low exposure. The term MRT last denotes the average time that molecules of a dose stay in the body. As usually defined, the Tmax is the time from dosing to the highest level. Broadly, the half-life is how long it takes for the measured level to halve. Broadly, the Cmax is the peak of the concentration-time curve. In general, EC50 refers to the concentration needed to bring the measured effect to its halfway point.

Series [1] concerns MK801-induced overactivity. The series is described as follows: Pharmacodynamic study in mice, MK-801 overactivity model (Test Example 5). It is filed as in vivo, C57 mice. To be noted: 3 mg/kg intragastric; for total movement distance after modeling: MK-801 0.8 mg/kg i.p., 30-60 min after administration, p<0.05 vs model group 101535.71±26076.11 mm. On the procedure: (§1) 4.1. model preparation: MK-801 induces overactivity in mice and is commonly used for preclinical evaluation of antipsychotics. The modeling method in this test was: The mice were injected with MK-801 intraperitoneally in at single dose of 0.8 mg/kg.
(§2) The mice were randomly divided into groups. At the start of the test, the test samples were administered intragastrically at an single dose according to the doses shown in Table 5, and the mice were placed in an activity chamber. After 30 min, each mouse was injected intraperitoneally with 0.8 mg/kg of MK-801 for modeling, and placed in the activity chamber again. The movement distance (mm) of the mice after modeling (i.e., within 30-60 min after administration) was recorded and analyzed using a TopScan monitoring system.
(§3) […] The total movement distance of the mice after modeling (30-60 min after administration) was recorded.
(§4) Data analysis and processing were carried out using Graphpad 5.0 software. ANOVA test was used to compare the total movement distance between each administration group and model group within 30-60 min.
Test Example 5. Pharmacodynamic Study in Mice
5.1. Experimental grouping: The mice were randomly divided into model group, 1-b group, and 2-a group, 5 animals in each group, as shown in Table 6. The model preparation, test method, observation of indexes and statistical method were the same as those in Test Example 4.

Series [2] can be described thus: Pharmacokinetic study in rats. It is filed as in vivo, SD rats. To be noted: for Cmax: read-out: Cmax or C0. How it is done:
Test Example 2. Pharmacokinetic Study in Rats
Rat: SD Rats Weighing 200-250 g
(§5) Reagent: acetonitrile, MERCK; methanol, MERCK; formic acid, Sigma; tolbutamide, Sigma.
Instrument: water purification equipment, Millipore; electronic balance, METTLER TOLEDO; high-speed benchtop centrifuge, Thermno; water bath thermostatic oscillator, Shanghai Yiheng Technical Co., Ltd.; vortex oscillator, Thermno; liquid chromatography-mass spectrometry, AB SCIEX.
Method: The SD rats were dosed intravenously (IV) and intragastrically (IG), 3 SD rats in each group. Compounds 1-b, 2-a and L27 were separately administered, and the vehicles were DMSO and Tween 80. […] Whole blood samples were separately collected at 0, 5 m (intravenous), 15 m, 30 mi, 1 h, 2 h, 4 h, 6 h, 8 h, 12 h, and 24 h. The whole blood was placed in a heparinized EP tube and centrifuged at 13,500 rpm for 10 min to separate the plasma. After pretreatment, the plasma was analyzed by LC-MS/MS to determine the concentration of the test compound in the plasma.

Series [3] is described as follows: Pharmacokinetic study in dogs. To be noted: dog, in vivo, po; Beagle dogs, plasma, after intragastric L15 hydrochloride 2 mg/kg (as free base); label = analyte. On the procedure: Test Example 3. Pharmacokinetic Study in Dogs
Dog: Beagle dogs weighing 11-13 kg
as §5
Instrument: water purification equipment, Millipore; electronic balance, METTLER TOLEDO; high-speed benchtop centrifuge, Thermo; water bath thermostatic oscillator, Shanghai Yiheng Technical Co., Ltd.; vortex oscillator, Thermo; liquid chromatography-mass spectrometry, AB SCIEX.
Method: L15 hydrochloride was administered intragastrically at a dose of 2 mg/kg (calculated based on free base), 2 Beagle dogs in each group. The vehicles were DMSO and Tween 80. Whole blood samples were separately collected at 0, 5 min, 15 min, 30 min, 1 h, 2 h, 3 h, 4 h, 6 h, 8 h, 12 h, and 24 h. The whole blood was placed in a heparinized EP tube and centrifuged at 13,500 rpm for 10 min to separate the plasma. After pretreatment, the plasma was analyzed by LC-MS/MS to determine the concentration of the test compound in the plasma.

A further series addresses T1, TAAR1 (Homo sapiens, UniProt Q96RJ0).
T1 construct: expressed in transfected cells; host or cells: CHO-K1 (cAMP Hunter TAAR1 Gs cell line)
T1 sequence (Q96RJ0 1-339): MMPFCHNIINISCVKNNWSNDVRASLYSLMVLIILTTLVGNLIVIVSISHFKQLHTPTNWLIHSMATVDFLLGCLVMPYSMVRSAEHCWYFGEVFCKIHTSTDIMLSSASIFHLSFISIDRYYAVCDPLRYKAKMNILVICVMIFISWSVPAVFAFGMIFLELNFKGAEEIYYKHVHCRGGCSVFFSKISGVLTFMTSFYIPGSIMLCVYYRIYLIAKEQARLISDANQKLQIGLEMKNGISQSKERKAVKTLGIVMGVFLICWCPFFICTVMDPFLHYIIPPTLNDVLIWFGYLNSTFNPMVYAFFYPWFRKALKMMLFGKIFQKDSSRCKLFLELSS
The series can be described thus: In vitro TAAR1 functional activity (cAMP Hunter CHO-K1 TAAR1 Gs cell line, HitHunter cAMP assay). Type of series: cell-based. Conditions: cAMP Hunter CHO-K1 TAAR1 Gs cell line, chemiluminescence cAMP readout; read-out: EC50. On the procedure: Test Example 1. In Vitro Evaluation of Intrasynaptic and Extrasynaptic Functional Activities in Cells
Cell: CAMP Hunter™ CHO-K1 TAAR1 Gs Cell Line
Assay Reagent: HitHunter cAMP Assay Detection Kit
Experimental Instrument: PerkinElmer Envision™ Chemiluminescence Signal Detector
Experimental method: cell treatment: The cAMP Hunter cell strain was cultured at 37° C. with 5% CO2 to 70-80% confluence. The cells were harvested, and the cell density was adjusted to 1.5×10^4 cells/mL. The cells were seeded in a white-wall 384-well microwell plate at a volume of 20 μL, and incubated at 37° C. with 5% CO2 overnight. The cell medium was discarded, and 15 μL of 2:1 HBSS/10 mM Hepes:cAMP XS+Ab reagent was added to each well. The mother solution of the sample was diluted with an assay buffer in a concentration gradient to a 4× sample, and 5 μL of the 4× sample was added to each well. The plate was incubated at 37° C. or room temperature for 30 or 60 min. […] 20 μL of cAMP XS+EA reagent was added to each well, and the plate was incubated at room temperature for 3 h. The chemiluminescence signal was read using a PerkinElmer Envision™ detector.
Data analysis: EC50 was calculated using CBIS data analysis software (ChemInnovation, CA). The activity percentage was calculated using the following formula: % activity=100%×(test sample average RLU−solvent control average RLU)/(maximum control average RLU−solvent control average RLU).
In general terms: Changes in cAMP serve as a functional read-out for many G protein-coupled receptors.

Series [4] deals with MK801-induced overactivity. The series is described as follows: Pharmacodynamic study in mice, MK-801 overactivity model (Test Example 4). To be noted: C57 mice; for total movement distance after modeling: MK-801 0.8 mg/kg i.p., 30-60 min after administration, p<0.05 vs model group 63052.14±21618.80 mm. Type of series: in vivo. On the procedure: Test Example 4. Pharmacodynamic Study in Mice
Mouse: C57 mice weighing 20-22 g
Instrument: electronic balance, METTLER TOLEDO; TopScan monitoring system.
as §1
4.2. Experimental grouping: The mice were randomly divided into model group, 1-b group, and L27 group, 10 animals in each group, as shown in Table 5.
as §2, §3, §4

The mark [5] stands for this setting: SD rats, 1-b IV 2 mg/kg, analyte 1-b.
[6] abbreviates: Sprague-Dawley, rat, in vivo, po, SD rats, plasma, 1-b IG 5 mg/kg, analyte 1-b.
The mark [7] stands for this setting: Sprague-Dawley, rat, in vivo, SD rats, plasma, 1-b IV 2 mg/kg, analyte 1-b.

`c1cc2c(s1)[C@@H]1CNCCN1CC2` [Compound 1-b]: in series [1], the “effect on MK801-induced overactivity (conclusion)” value (“effect” for short) is “good inhibition effect” and the “total movement distance after modeling” value was 13644.54±10814.85 mm. Also, in series [2] (SD rats, 1-b IG 5 mg/kg vs IV 2 mg/kg), the F is on record as 66.6 ± 8.12%. Further, in series [2] (setting [5]), the Cl_obs came out at 28.8 ± 3.25 mL/min/kg and the Vss_obs is 2.91 ± 0.68 L/kg. In series [2] (setting [6]), the area under the curve AUC(0-t) came to 9.95 ± 1.21 µM·h, the MRT last was 2.33 ± 0.465 h, the Tmax came to 0.417 ± 0.144 h and the half-life is 1.85 ± 0.217 h. Besides, in series [2] (setting [6]), the Cmax came to 3.73 ± 0.846 µM. Besides, in series [2] (setting [7]), the AUC(0-t) is 5.97 ± 0.642 µM·h, the MRT last came out at 1.6 ± 0.203 h, the half-life was 1.76 ± 0.344 h and the Cmax came out at 7.54 ± 2.28 µM. Also, in series [3], the exposure AUC(0-t) stood at 0.0547 µM·h, the highest level (Cmax) was 0.0223 µM, the mean residence time (MRT last) was found to be 1.68 h and the time to peak (Tmax) was determined as 1.5 h. Also, on TAAR1, the EC50 came out at 0.062 µM. Further, in series [4] (10 mg/kg intragastric), the “effect” value is reported as “good inhibition effect”. Further, the “total movement distance after modeling” value in series [4] (1-b 10 mg/kg intragastric) was determined as 6493.12±6228.87 mm.

`CC(OC(=O)C(C)C)OC(=O)N1CCN2CCc3ccsc3[C@@H]2C1` (stereo partly drawn) [Compound L27]: the “Detection of L27 in plasma” value in series [2] (SD rats, after intragastric L27 9 mg/kg) is “L27 was not detected”. For the same molecule, in series [4] (L27 hydrochloride 16 mg/kg intragastric), the “total movement distance after modeling” value was 8100.56±7787.37 mm.

On to `CN1CCN2CCc3ccsc3[C@@H]2C1` [Compound 2-a], for which, in series [1], the “effect” value is recorded as “good inhibition effect” and the “total movement distance after modeling” value worked out at 9161.61±4711.10 mm. Besides, in series [2] (rat, in vivo), the “Exposure and bioavailability (conclusion)” value is “relatively high exposure and bioavailability”. Further, the concentration for a half-maximal effect (EC50) on TAAR1 was found to be 4.4 µM.
